Experimental data taken from patent US8188101B2 (AstraZeneca AB, priority 2008, dated 2012).

What follows are molecules tested on Aβ42 release (assay: Aβ release in cells stably expressing APPswe, Meso Scale Discovery electrochemiluminescence assay). Conditions: Homo sapiens, SH-SY5Y, HEK or SH-SY5Y cells stably expressing APPswe, 4-6 hours incubation with test compound.
Type: cell-based, Human
Description: The level of activity of the compounds on Aβ release was tested using the following method:
Compounds were diluted in 100% DMSO and stored at […] prior to use. Human Embryonic Kidney (HEK) or Human Neuroblastoma (SH-SY5Y) cell lines stably expressing APP with the Swedish mutation (APPswe) were cultured using Dulbecco's Modified Eagles medium (DMEM) supplied with […] glucose, Na-pyruvate and GlutaMAX with 10% FBS, 100 U/ml penicillin-streptomycin (PEST) respectively, 1× non-essential amino acids (NEAA), […] Hepes, 100 μg/ml Zeocine. Cells at about 80% confluence were washed with PBS, detached from culture flasks using 1× Trypsin/EDTA diluted in PBS, re-suspended in cell media and plated in 384-well poly-d-lysine coated cell culture plates at about 10000-15000 cells/well, in 25 μL cell media. Optionally, cryo-preserved cells (frozen and stored at −140° C. in 90% cell media and 10% DMSO) were thawed, washed and plated as above. Next the cells were incubated for 15-24 h at 37° C. and 5% CO2, after which cell medium was changed. Fresh medium containing test compound diluted ×200 from prepared compound plate was added to the cells before further incubation for 4-6 hours at 37° C. and 5% CO2. After incubation with test compound the amount of Aβ peptides, including Aβ42, Aβ40, Aβ39, Aβ38 and Aβ37, secreted to the cell medium was analyzed using the electrochemiluminescence assay technology from Meso Scale Discovery Technology, in combination with specific antibodies raised against the different Aβ peptides. Potential cytotoxic effects of the compounds were usually assayed by measuring the ATP content (ViaLight) from cell lysate.
`CC(=O)N1CCc2nc(Nc3ccc(-n4ccnc4C)cc3)nc(CCc3cccc(F)c3)c2C1` [Example 60, 1-(4-(3-Fluorophenethyl)-2-(4-(2-methyl-1H-imidazol-1-yl)phenylamino)-7,8-dihydropyrido[4,3-d]pyrimidin-6(5H)-yl)ethanone] gave an IC50 of 0.501 µM.
`Cc1nccn1-c1ccc(Nc2nc3c(c(CC4CCOCC4)n2)CN(C)CC3)cc1` [Example 61, 6-Methyl-N-(4-(2-methyl-1H-imidazol-1-yl)phenyl)-4-((tetrahydro-2H-pyran-4-yl)methyl)-5,6,7,8-tetrahydropyrido[4,3-d]pyrimidin-2-amine] was tested, and the IC50 was 10 µM.
`Cc1nccn1-c1ccc(Nc2nc3c(c(CC4CCOCC4)n2)CN(CCO)CC3)cc1` [Example 62, 2-(2-(4-(2-Methyl-1H-imidazol-1-yl)phenylamino)-4-((tetrahydro-2H-pyran-4-yl)methyl)-7,8-dihydropyrido[4,3-d]pyrimidin-6(5H)-yl)ethanol] was tested, and the IC50 was 10 µM.
With `CC(=O)N1CCc2nc(Nc3ccc(-n4ccnc4C)cc3)nc(CC3CCOCC3)c2C1` [Example 63, 1-(2-(4-(2-Methyl-1H-imidazol-1-yl)phenylamino)-4-((tetrahydro-2H-pyran-4-yl)methyl)-7,8-dihydropyrido[4,3-d]pyrimidin-6(5H)-yl)ethanone] the IC50 was 50.1 µM.
`Cc1nccn1-c1ccc(Nc2nc3c(c(Cc4ccc(F)cc4)n2)C[S+]([O-])CC3)cc1` (centres unmarked) [Example 64, 4-(4-Fluorobenzyl)-N-[4-(2-methyl-1H-imidazol-1-yl)phenyl]-7,8-dihydro-5H-thiopyrano[4,3-d]pyrimidin-2-amine 6-oxide] gave an IC50 of 1 µM.
In the case of `COC(c1ccccc1)c1nc(Nc2ccc(-n3ccnc3C)cc2)nc2c1COCC2` (centres unmarked) [Example 65, 4-(Methoxy(phenyl)methyl)-N-(4-(2-methyl-1H-imidazol-1-yl)phenyl)-7,8-dihydro-5H-pyrano[4,3-d]pyrimidin-2-amine], the IC50 is reported as 0.316 µM.
`COC(c1ccccc1)c1nc(Nc2ccc(-n3ccnc3C)cc2)nc2c1CS(=O)(=O)CC2` (centres unmarked) [Example 66, 4-[Methoxy(phenyl)methyl]-N-[4-(2-methyl-1H-imidazol-1-yl)phenyl]-7,8-dihydro-5H-thiopyrano[4,3-d]pyrimidin-2-amine 6,6-dioxide] was tested, and the IC50 was 1.26 µM.
In the case of `Cc1nccn1-c1ccc(Nc2nc3c(c(CC4CCOCC4)n2)COCC3)cc1` [Example 67, N-(4-(2-Methyl-1H-imidazol-1-yl)phenyl)-4-((tetrahydro-2H-pyran-4-yl)methyl)-7,8-dihydro-5H-pyrano[4,3-d]pyrimidin-2-amine], the IC50 is reported as 10 µM.
In the case of `COc1cc(Nc2nc3c(c(Cc4ccccc4)n2)CN(C)CC3)ccc1-n1cnc(C)c1` [Example 68, 4-Benzyl-N-(3-methoxy-4-(4-methyl-1H-imidazol-1-yl)phenyl)-6-methyl-5,6,7,8-tetrahydropyrido[4,3-d]pyrimidin-2-amine], the IC50 is reported as 0.02 µM.
Work on `Cc1nccn1-c1ccc(Nc2nc3c(c(NC4CCCCC4)n2)CN(C)CC3)cc1` [Example 69, N4-Cyclohexyl-6-methyl-N2-(4-(2-methyl-1H-imidazol-1-yl)phenyl)-5,6,7,8-tetrahydropyrido[4,3-d]pyrimidine-2,4-diamine] yielded an IC50 of 0.398 µM.
`Cc1nccn1-c1ccc(N(C)c2nc3c(c(N4c5ccccc5C[C@H]4CO)n2)CN(C)CC3)cc1` [Example 72] showed an IC50 of 0.631 µM.
Molecule `Cc1nccn1-c1ccc(Nc2nc3c(c(NC[C@@H]4CCCO4)n2)CN(C)CC3)cc1` [Example 73, (S)-6-Methyl-N2-(4-(2-methyl-1H-imidazol-1-yl)phenyl)-N4-((tetrahydrofuran-2-yl)methyl)-5,6,7,8-tetrahydropyrido[4,3-d]pyrimidine-2,4-diamine] has an IC50 of 0.794 µM.
Molecule `Cc1nccn1-c1ccc(Nc2nc3c(c(NC[C@H]4CCCO4)n2)CN(C)CC3)cc1` [Example 74, (R)-6-Methyl-N2-(4-(2-methyl-1H-imidazol-1-yl)phenyl)-N4-((tetrahydrofuran-2-yl)methyl)-5,6,7,8-tetrahydropyrido[4,3-d]pyrimidine-2,4-diamine] has an IC50 of 1 µM.
`COc1cc(Nc2nc3c(c(Cc4ccccc4)n2)CN(CCO)CC3)ccc1-n1cnc(C)c1` [Example 75, 2-(4-Benzyl-2-(3-methoxy-4-(4-methyl-1H-imidazol-1-yl)phenylamino)-7,8-dihydropyrido[4,3-d]pyrimidin-6(5H)-yl)ethanol] was tested, and the IC50 was 0.0251 µM.
Molecule `Cc1nccn1-c1ccc(Nc2nc3c(c(N(CCO)Cc4ccccc4)n2)CN(C)CC3)cc1` [Example 76, 2-(Benzyl(6-methyl-2-(4-(2-methyl-1H-imidazol-1-yl)phenylamino)-5,6,7,8-tetrahydropyrido[4,3-d]pyrimidin-4-yl)amino)ethanol] has an IC50 of 0.501 µM.
For `CCN(CC1CCCO1)c1nc(Nc2ccc(-n3ccnc3C)cc2)nc2c1CN(CCO)CC2` (centres unmarked) [Example 77, 2-(4-(Ethyl((tetrahydrofuran-2-yl)methyl)amino)-2-(4-(2-methyl-1H-imidazol-1-yl)phenylamino)-7,8-dihydropyrido[4,3-d]pyrimidin-6(5H)-yl)ethanol], the IC50 was 0.631 µM.
`Cc1nccn1-c1ccc(Nc2nc3c(c(N(CCC#N)C4CC4)n2)CN(C)CC3)cc1` [Example 78, 3-(Cyclopropyl(6-methyl-2-(4-(2-methyl-1H-imidazol-1-yl)phenylamino)-5,6,7,8-tetrahydropyrido[4,3-d]pyrimidin-4-yl)amino)propanenitrile] showed an IC50 of 1 µM.
Molecule `Cc1nccn1-c1ccc(Nc2nc3c(c(NCC4CCOCC4)n2)CN(C)CC3)cc1` [Example 79, 6-Methyl-N2-(4-(2-methyl-1H-imidazol-1-yl)phenyl)-N4-((tetrahydro-2H-pyran-4-yl)methyl)-5,6,7,8-tetrahydropyrido[4,3-d]pyrimidine-2,4-diamine] has an IC50 of 1.26 µM.
With `OCCN1CCc2nc(Nc3ccc(-c4cnco4)cc3)nc(NC[C@H]3CCCO3)c2C1` [Example 80, (R)-2-(2-(4-(Oxazol-5-yl)phenylamino)-4-((tetrahydrofuran-2-yl)methylamino)-7,8-dihydropyrido[4,3-d]pyrimidin-6(5H)-yl)ethanol] the IC50 was 0.158 µM.
With `CCN(CC1CCCO1)c1nc(Nc2ccc(-c3cnco3)cc2)nc2c1CN(CCO)CC2` (centres unmarked) [Example 81, 2-(4-(Ethyl((tetrahydrofuran-2-yl)methyl)amino)-2-(4-(oxazol-5-yl)phenylamino)-7,8-dihydropyrido[4,3-d]pyrimidin-6(5H)-yl)ethanol] the IC50 was 0.251 µM.
For `CCN(CC1CCCO1)c1nc(Nc2ccc(-c3cnco3)cc2)nc2c1CN(C)CC2` (centres unmarked) [Example 82, N4-Ethyl-6-methyl-N2-(4-(oxazol-5-yl)phenyl)-N4-((tetrahydrofuran-2-yl)methyl)-5,6,7,8-tetrahydropyrido[4,3-d]pyrimidine-2,4-diamine], the IC50 was 0.316 µM.
`CN1CCc2nc(Nc3ccc(-c4cnco4)cc3)nc(NC[C@@H]3CCCO3)c2C1` [Example 83, (S)-6-Methyl-N2-(4-(oxazol-5-yl)phenyl)-N4-((tetrahydrofuran-2-yl)methyl)-5,6,7,8-tetrahydropyrido[4,3-d]pyrimidine-2,4-diamine] gave an IC50 of 0.158 µM.
In the case of `CN1CCc2nc(Nc3ccc(-c4cnco4)cc3)nc(NC[C@H]3CCCO3)c2C1` [Example 84, (R)-6-Methyl-N2-(4-(oxazol-5-yl)phenyl)-N4-((tetrahydrofuran-2-yl)methyl)-5,6,7,8-tetrahydropyrido[4,3-d]pyrimidine-2,4-diamine], the IC50 is reported as 0.158 µM.
For `CN1CCc2nc(Nc3ccc(-c4cnco4)cc3)nc(NCC3CCOCC3)c2C1` [Example 85, 6-Methyl-N2-(4-(oxazol-5-yl)phenyl)-N4-((tetrahydro-2H-pyran-4-yl)methyl)-5,6,7,8-tetrahydropyrido[4,3-d]pyrimidine-2,4-diamine], the IC50 was 0.251 µM.
Work on `OCCN1CCc2nc(Nc3ccc(-c4cnco4)cc3)nc(NCC3CCOCC3)c2C1` [Example 86, 2-(2-(4-(Oxazol-5-yl)phenylamino)-4-((tetrahydro-2H-pyran-4-yl)methylamino)-7,8-dihydropyrido[4,3-d]pyrimidin-6(5H)-yl)ethanol] yielded an IC50 of 0.501 µM.
Molecule `Cc1cc(C(C)c2ccccc2)nc(Nc2ccc(-n3ccnc3C)cc2)n1` (centres unmarked) [Example 87, 4-Methyl-N-(4-(2-methyl-1H-imidazol-1-yl)phenyl)-6-(1-phenylethyl)pyrimidin-2-amine] has an IC50 of 0.316 µM.
Molecule `CC(=O)N1CCc2nc(Nc3ccc(-c4cnco4)cc3)nc(N(C)C3CCCCC3)c2C1` [Example 88, 1-(4-(Cyclohexyl(methyl)amino)-2-(4-(oxazol-5-yl)phenylamino)-7,8-dihydropyrido[4,3-d]pyrimidin-6(5H)-yl)ethanone] has an IC50 of 0.398 µM.
`CC(=O)N1CCc2nc(Nc3ccc(-c4cnco4)cc3)nc(N(C)c3ccc(F)cc3)c2C1` [Example 89, 1-(4-((4-Fluorophenyl)(methyl)amino)-2-(4-(oxazol-5-yl)phenylamino)-7,8-dihydropyrido[4,3-d]pyrimidin-6(5H)-yl)ethanone] showed an IC50 of 0.631 µM.
For `CC(=O)N1CCc2nc(Nc3ccc(-c4cnco4)cc3)nc(N3CCc4ccccc43)c2C1` [Example 90, 1-(4-(Indolin-1-yl)-2-(4-(oxazol-5-yl)phenylamino)-7,8-dihydropyrido[4,3-d]pyrimidin-6(5H)-yl)ethanone], the IC50 was 0.631 µM.
